Reference: article PMC12345723, “Valorization of Coffee Silverskin via Integrated Biorefinery for the Production of Bioactive Peptides and Xylooligosaccharides: Functional and Prebiotic Properties” (Foods, 2025)
Marks after values point to notes of the source that are not given here.

Columns and labels:
RAW 264.7 macrophages = settings: cited from earlier work
Method: A peptide concentration of 200 µg/mL was selected based on preliminary cytotoxicity screening using RAW 264.7 macrophage cells, which confirmed that this dose was non-toxic under the experimental conditions.

RAW 264.7 cells = settings: RAW 264.7, 24 h, 0–200 µg/mL, SRB assay
Method: The cytotoxicity of synthetic bioactive peptides was evaluated using the sulforhodamine B (SRB) colorimetric assay, as described by Vichai and Kirtikara. Briefly, RAW 264.7 murine macrophage cells were seeded at a 2 × 10^4 cells/well density in 96-well plates and incubated for 24 h. The cells were then treated with various concentrations of peptides (0–200 μg/mL) for an additional 24 h. After treatment, the cells were fixed with cold trichloroacetic acid (TCA) and stained with 0.4% (w/v) SRB in 1% (v/v) acetic acid. Unbound dye was removed by washing, and protein-bound SRB was solubilized using […] Tris base solution. Absorbance was measured at 520 nm using a microplate reader, and cell viability was calculated as a percentage relative to untreated control cells. Non-cytotoxic concentrations of the peptides were subsequently used for further investigation of their anti-inflammatory effects on LPS-induced nitric oxide (NO) production in RAW 264.7 cells.

[1] = system: Dipeptidyl Peptidase-IV (DPP-IV); settings: peptide 5000 μM; Gly-Pro-p-nitroanilide, Tris-HCl pH 8.0, 37 °C, 60 min; absorbance 385 nm; mean ± SD, n = 3
Method: The DPP-IV inhibitory activity was determined using a modified method based on Lacroix and Li-Chan [22]. Briefly, the synthetic peptide was diluted in 100 mM Tris-HCl buffer (pH 8.0) to a final concentration of 5000 μM. The reaction mixture was prepared in a 1.5 mL microcentrifuge tube by combining 75 μL of Gly-Pro-p-nitroanilide (1.59 mM), 50 μL of Tris-HCl buffer (pH 8.0), and 25 μL of the peptide sample. The mixture was pre-incubated at 37 °C for 10 min. Following pre-incubation, 50 μL of DPP-IV enzyme solution (0.01 U/mL) was added, and the reaction was incubated at 37 °C for 60 min. The reaction was terminated by adding 300 μL of 99.8% ethanol. The absorbance of the reaction mixture was measured at 385 nm, and the DPP-IV inhibitory activity was calculated and expressed as a percentage of inhibition.
ACE inhibitory activity was assessed at a peptide concentration of 500 μM, while DPP-IV inhibitory activity and antioxidant activity (ABTS radical scavenging assay) were evaluated at a concentration of 5000 μM.

[2] = ABTS radical scavenging assay; settings: for Antioxidant Activity: ABTS, peptide 500 μM (table footnote), 30 min, absorbance 734 nm, mean ± SD, n = 3
Method: Antioxidant activity analysis was performed in the dark. DPPH, ABTS radical scavenging activity, and the ferric-reducing antioxidant power (FRAP) assay were determined following the method described by Jirarat et al. (2024). Concisely, samples were diluted using distilled water to the desired concentration. For the DPPH assay, a 500 μL sample was mixed with 500 μL of ethanolic DPPH solution (80 mg/L) for 60 min before measuring the absorbance at 517 nm. The ABTS radical (ABTS+) solution was prepared by incubating the mixture of 2.45 mM potassium persulfate solution and 7 mM ABTS solution (1:1, v/v) for 12–16 h. The deionized water was used for diluting the ABTS^+ solution to 0.70 ± 0.02 at an absorbance of […]. After that, the ABTS assay was performed by incubating a 50 μL sample with 850 μL of prepared ABTS^+ solution for 30 min, and the radical scavenging activity was determined by measuring the absorbance at 734 nm. Furthermore, the FRAP assay was performed by preparing the FRAP reagent, which consisted of 300 mM acetate buffer (pH 3.6), 20 mM FeCl3·6H2O, and 10 mM TPTZ in 40 mM HCl, mixed in a 10:1:1 volume ratio. Then, 100 μL of the sample was mixed with 900 μL the FRAP reagent and incubated for 30 min. […] The antioxidant capacity in all assays was expressed as micromoles of Trolox equivalents per liter (μmol TE/L) based on a Trolox standard curve.

GTWY [peptide derived from whey protein hydrolysates]
cytotoxic effects (RAW 264.7 macrophages): no cytotoxic effects

FDYGKY [phenylalanine-aspartic acid-tyrosine-glycine-lysine-tyrosine, peptide from CS-protein hydrolysate fraction F4, custom synthesized]
cytotoxicity (RAW 264.7 cells): non-toxic
DPP-IV Inhibition [1]: 0%
Antioxidant Activity [2]: 50 ± 1 ^a %

FLGY [phenylalanine-leucine-glycine-tyrosine, peptide from CS-protein hydrolysate fraction F3, custom synthesized]
cytotoxicity (RAW 264.7 cells): non-toxic
DPP-IV Inhibition [1]: 19 ± 1 ^a %
Antioxidant Activity [2]: 48 ± 1 ^a %
ABTS radical scavenging activity ([2]; peptide 5000 μM as printed in the text): 48%

phenylalanine-tyrosine-aspartic acid-threonine-tyrosine-tyrosine [FYDTYY]
cytotoxicity (RAW 264.7 cells): non-toxic
DPP-IV Inhibition [1]: 18 ± 3 ^a %

DYKKY [peptide derived from whey protein hydrolysates]
cytotoxic effects (RAW 264.7 macrophages): no cytotoxic effects
